Assay: xn = mol fraction of the nth substance listed
Conditions: 101 kPa, Liquid; for speed of sound: Sing-around technique in a fixed-path interferometer; for mass density: Vibrating tube method

CCCCCC[n+]1ccc(C)cc1.[Br-] [1-hexyl-4-methylpyridinium bromide] + O
Conditions	mass density, 308.15 K [kg/m3]	mass density, 318.15 K [kg/m3]	speed of sound, 308.15 K [m/s]	speed of sound, 318.15 K [m/s]
x2 = 0.0528	1214.12	1207.39	1586.8	1557.9
x2 = 0.1126	1213.44	1206.62	1583.6	1557
x2 = 0.2082	1211.69	1204.8	1579.1	1555.2
x2 = 0.2609	1210.34	1203.43	1575.7	1554.2
x2 = 0.3062	1208.9	1202.01	1573.2	1553.2
x2 = 0.4101	1204.56	1197.72	1568.4	1551.7
x2 = 0.4609	1201.71	1194.91	1565.3	1550.7
x2 = 0.5077	1198.65	1191.88	1563	1549.8
x2 = 0.6089	1189.79	1183.07	1557.2	1547.7
x2 = 0.6539	1184.57	1177.87	1553.3	1546
x2 = 0.7029	1177.58	1170.89	1547.7	1544.7
x2 = 0.7484	1169.44	1162.78	1542.9	1543.5
x2 = 0.8066	1155.56	1148.97	1537.6	1542
x2 = 0.8545	1139.33	1132.88	1533.7	1540.5
x2 = 0.9066	1112.82	1106.74	1529.4	1539.1
x2 = 0.9502	1076.22	1070.75	1524.9	1537.8

CCCCCC[n+]1ccccc1.[Br-] [1-hexylpyridinium bromide] + O
Conditions	mass density, 308.15 K [kg/m3]	mass density, 318.15 K [kg/m3]	speed of sound, 308.15 K [m/s]	speed of sound, 318.15 K [m/s]
x2 = 0.0609	1235	1228.39	1589.8	1556.2
x2 = 0.1184	1234.11	1227.43	1587.3	1555.1
x2 = 0.2091	1232.19	1225.43	1583.4	1553.2
x2 = 0.2544	1230.93	1224.15	1580.7	1552.2
x2 = 0.3097	1229.05	1222.25	1578.7	1551.4
x2 = 0.414	1224.2	1217.39	1574.6	1550
x2 = 0.4533	1221.81	1215.01	1572.9	1549.3
x2 = 0.5028	1218.26	1211.46	1571.8	1548.7
x2 = 0.5928	1209.73	1202.97	1570.1	1547.5
x2 = 0.6486	1202.64	1195.91	1565.9	1547.1
x2 = 0.7138	1191.79	1185.1	1561.6	1546.5
x2 = 0.7554	1182.79	1176.19	1557.1	1545.7
x2 = 0.7995	1170.69	1164.19	1551.1	1545
x2 = 0.8534	1150.45	1144.16	1543.3	1543.3
x2 = 0.9011	1124.03	1118.08	1535.9	1541.3
x2 = 0.9511	1079.2	1073.95	1528.1	1539.1

CCCCCC[n+]1ccccc1.[Cl-] [1-hexylpyridinium chloride] + O
Conditions	mass density, 308.15 K [kg/m3]	mass density, 318.15 K [kg/m3]	speed of sound, 308.15 K [m/s]	speed of sound, 318.15 K [m/s]
x2 = 0.0598	1146.46	1142.37	1569.2	1548.7
x2 = 0.1085	1146.26	1142.04	1567.4	1548.1
x2 = 0.2068	1145.6	1141.23	1564.8	1547.2
x2 = 0.2492	1145.16	1140.76	1563.9	1546.6
x2 = 0.3024	1144.44	1140.03	1562.9	1546
x2 = 0.4166	1142.05	1137.61	1560.3	1544.8
x2 = 0.4568	1140.82	1136.36	1559.6	1544.1
x2 = 0.5065	1138.92	1134.43	1557.6	1543.4
x2 = 0.6137	1132.92	1128.25	1553.2	1542
x2 = 0.6533	1129.75	1124.99	1550.8	1541.4
x2 = 0.709	1124.03	1119.08	1547.4	1540.6
x2 = 0.7521	1118.2	1113.12	1542.8	1540
x2 = 0.7936	1110.94	1105.73	1539.5	1539.4
x2 = 0.8561	1095.34	1090.02	1534	1538.6
x2 = 0.8966	1080.31	1074.99	1529.9	1538.2
x2 = 0.9528	1046.95	1042	1524.5	1537.2

From the NIST ThermoML archive (doi:10.1021/acs.jced.6b00460)
